# Measurements reported in paper PMC10548421, “Anticancer Potential of Diruthenium Complexes with Bridging Hydrocarbyl Ligands from Bioactive Alkynols” (Inorganic Chemistry, 2023).
# Assay: Cyclic voltammetry in CH2Cl2/[N^nBu4]PF6
# Format: physicochemical
# Conditions: CH2Cl2/[N^nBu4]PF6 0.2 M
# Protocol: Cyclic voltammetry measurements were conducted by using a PalmSens4 instrument connected to a computer operating with the PSTrace5 electrochemical software. Prior to use, anhydrous CH2Cl2 (Merck) was stored under argon over 3 Å molecular sieves. Both [N^nBu4]PF6 (electrochemical grade) and FeCp2, obtained from Fluka, were utilized without requiring additional purification. Cyclic voltammetries were carried out under argon by utilizing a 0.2 M solution of [N^nBu4]PF6 in CH2Cl2 as the supporting electrolyte. The working electrode and the counter electrode were comprised of a platinum disk and a platinum gauze, respectively, both enclosed within a glass tube. A leakage-free miniature electrode of Ag/AgCl/KCl (from eDAQ) was employed as a reference. The three-electrode designed cell was subjected to predrying via vacuum heating and then filled with argon gas. The Schlenk-type design of the cell was effective in upholding both anhydrous and anaerobic conditions. Subsequently, a solution of supporting electrolyte, prepared under argon, was introduced into the cell, and the CV of the solvent was acquired. Afterward, the analyte was introduced, and voltammograms were recorded. Under the selected experimental conditions, the one-electron oxidation of ferrocene occurred at a standard potential of E° = +0.45 V relative to Ag/AgCl/KCl.
# [1] = vs Ag/AgCl/KCl, peak potential of irreversible process
smiles,measurement,setting,value
"F[B-](F)(F)F.O=[C]=[Ru+]1([CH]2C=CC=C2)[C](=O)[Ru]1(=[C]=O)([CH]=C=C1CCCC1)[CH]1C=CC=C1 (stereo not shown) [3a, [Ru2Cp2(CO)3{μ–η^1:η^2-CH=C=(cyclopentylidene)}]BF4]","Formal electrode potential, oxidation",[1],+1.61 V
same,"Formal electrode potential, reduction",[1],–1.00 V
same,"Formal electrode potential, oxidation",vs FeCp2 (in parentheses),+1.15 V
same,"Formal electrode potential, reduction",vs FeCp2 (in parentheses),−1.46 V
